Assay results as given in ChEMBL document CHEMBL3232710, “Pyrroloquinolinone-based dual topoisomerase I/II inhibitor” (2014).
The source made the active and inactive calls. The calls are words filed in the database; no cut-off is given here.

What was measured:
[1] = molecular target: DNA topoisomerase 2-alpha (Homo sapiens) (UniProt P11388); test: Inhibition of human recombinant topoisomerase 2-alpha-mediated pBR322 DNA relaxation at 50 uM after 60 mins by agarose gel electrophoresis
HL-60 = test: Growth inhibition of human HL60 cells after 72 hrs by trypan blue assay; type: functional; details: HL-60, 72 h
A-431 = test: Growth inhibition of human A431 cells after 72 hrs by trypan blue assay; type: functional; details: A-431, 72 h
Nucleic Acid = test: Binding affinity to salmon testes DNA assessed as intercalation at compound to DNA ratio of 0.04 by linear dichroism analysis; type: nucleic-acid assay; details: Salmonidae
HeLa [2] = test: Growth inhibition of human HeLa cells after 72 hrs by trypan blue assay; type: functional
Bos taurus = organism: Bos taurus; test: Inhibition of calf thymus topoisomerase-1-mediated pBR322 DNA relaxation after 60 mins by agarose gel electrophoresis
HeLa [3] = test: Induction of apoptosis in human HeLa cells assessed as DNA fragmentation at 100 uM after 24 hrs by agarose gel electrophoresis; type: functional, cell-based
[4] = molecular target: DNA topoisomerase 2-alpha (Homo sapiens) (UniProt P11388); test: Inhibition of human recombinant topoisomerase 2-alpha-mediated pBR322 DNA relaxation at 20 uM after 60 mins by agarose gel electrophoresis
[5] = molecular target: DNA topoisomerase 2-alpha (Homo sapiens) (UniProt P11388); test: Inhibition of human recombinant topoisomerase 2-alpha-mediated pBR322 DNA cleavage at 100 uM after 60 mins by agarose gel electrophoresis

Chain of DNA topoisomerase 2-alpha (Homo sapiens) (P11388 whole entry): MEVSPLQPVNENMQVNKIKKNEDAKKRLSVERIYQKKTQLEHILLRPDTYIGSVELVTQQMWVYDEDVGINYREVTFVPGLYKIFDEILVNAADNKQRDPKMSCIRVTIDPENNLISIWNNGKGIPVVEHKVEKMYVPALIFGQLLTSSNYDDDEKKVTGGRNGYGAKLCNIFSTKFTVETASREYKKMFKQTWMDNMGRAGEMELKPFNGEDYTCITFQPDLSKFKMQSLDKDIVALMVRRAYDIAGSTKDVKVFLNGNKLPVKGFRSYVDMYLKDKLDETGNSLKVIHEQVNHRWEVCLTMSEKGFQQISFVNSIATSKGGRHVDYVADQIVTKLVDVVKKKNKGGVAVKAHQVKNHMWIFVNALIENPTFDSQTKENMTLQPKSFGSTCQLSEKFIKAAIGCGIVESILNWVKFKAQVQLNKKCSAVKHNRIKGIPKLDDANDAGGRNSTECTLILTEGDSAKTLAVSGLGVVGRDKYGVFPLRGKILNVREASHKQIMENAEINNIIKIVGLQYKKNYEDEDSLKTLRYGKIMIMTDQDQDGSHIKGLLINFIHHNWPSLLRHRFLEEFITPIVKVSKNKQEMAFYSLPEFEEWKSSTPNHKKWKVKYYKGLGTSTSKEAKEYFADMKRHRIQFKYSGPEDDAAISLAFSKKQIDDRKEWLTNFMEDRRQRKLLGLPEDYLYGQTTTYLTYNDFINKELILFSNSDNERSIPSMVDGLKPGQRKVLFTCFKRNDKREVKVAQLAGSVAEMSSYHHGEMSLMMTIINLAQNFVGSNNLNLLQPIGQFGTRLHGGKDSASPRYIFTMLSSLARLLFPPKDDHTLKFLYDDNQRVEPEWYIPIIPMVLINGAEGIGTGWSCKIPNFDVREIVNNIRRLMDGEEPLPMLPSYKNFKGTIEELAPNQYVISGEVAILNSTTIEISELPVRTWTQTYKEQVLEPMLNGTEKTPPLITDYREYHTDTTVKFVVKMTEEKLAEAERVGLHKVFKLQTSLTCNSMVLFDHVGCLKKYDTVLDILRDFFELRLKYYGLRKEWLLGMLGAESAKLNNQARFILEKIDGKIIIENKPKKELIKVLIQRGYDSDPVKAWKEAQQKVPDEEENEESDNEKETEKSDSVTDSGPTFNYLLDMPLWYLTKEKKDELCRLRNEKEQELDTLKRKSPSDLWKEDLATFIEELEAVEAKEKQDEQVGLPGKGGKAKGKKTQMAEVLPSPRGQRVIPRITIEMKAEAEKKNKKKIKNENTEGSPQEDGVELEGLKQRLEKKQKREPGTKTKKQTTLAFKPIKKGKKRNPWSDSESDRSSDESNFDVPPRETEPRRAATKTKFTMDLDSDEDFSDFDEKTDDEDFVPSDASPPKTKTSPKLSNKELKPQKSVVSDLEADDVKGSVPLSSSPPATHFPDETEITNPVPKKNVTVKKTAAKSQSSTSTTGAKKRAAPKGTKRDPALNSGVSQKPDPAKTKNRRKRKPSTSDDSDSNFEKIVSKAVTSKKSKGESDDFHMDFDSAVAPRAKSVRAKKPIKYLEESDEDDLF

Row | SMILES | inhibition [1] | GI50 (HL-60) [µM] | GI50 (A-431) [µM] | Activity (Nucleic Acid) | GI50 (HeLa [2]) [µM] | inhibition (Bos taurus) | Activity (HeLa [3]) | inhibition [4] | inhibition [5]
1 | Cc1cc(=O)n2c(C)cc3c(OCCCNCCN(C)C)ccc1c32 | inactive | > 50 | 14.5 | Active |  |  |  |  | 
2 | Cc1c2ccncc2c(C)c2c1[nH]c1ccccc12 [ELLIPTECINE] |  | 2 | 3.2 |  | 0.3 |  |  |  | 
3 | Cc1cc(=O)n2c(C)cc3c(OCCCCNCCN(C)C)ccc1c32 | Active | 8.3 | 13.6 | Active | 19.7 | Dose-dependent effect | Active | inactive | Active
4 | Cc1cc(=O)n2c(C)cc3c(OCCCCN(C)C)ccc1c32 | inactive | > 50 | 41.3 | Active | > 50 |  |  | inactive | 
5 | Cc1cc(=O)n2c(C)cc3c(OCCNCCN(C)C)ccc1c32 | Active | 25.7 | 7.5 | Active | > 50 |  |  |  | 
